Data published in patent US9585875B2, “TRPM8 antagonists” (Dompé S.P.A., priority 2011, dated 2017).

Columns and labels:
CYP 1A2 = CYP 1A2 (Homo sapiens, UniProt P05177); test: CYP inhibition; format: in vitro ADME
Log D = format: physicochemical
hERG channel = hERG channel (Homo sapiens, UniProt Q12809); test: hERG binding
CYP 2C9 = CYP 2C9 (Homo sapiens, UniProt P11712); test: CYP inhibition; format: in vitro ADME
CYP 2C19 = CYP 2C19 (Homo sapiens, UniProt P33261); test: CYP inhibition; format: in vitro ADME
[1] = Pharmacokinetic profile in rat; format: in vivo; conditions: plasma; for half-life: iv, read-out: t1/2 i.v. rat
[2] = biological target: T1, human Dopamine D3 Receptor (Homo sapiens, UniProt P35462); test: Radioligand binding assay; conditions: read-out: percentage of control binding value (% B)
T1 construct: expressed in transfected cells; host or cells: HEK293 or CHO
Experimental: (§1) The objective of this study was to evaluate the in vitro effects of compounds 10 and 45 on cloned human GPCRs (G-protein coupled receptors) expressed in HEK293 or CHO cells using radioligand binding assays (compound concentration=10 μM).
(§2) Three replicates were performed for each experiment.
(§3) For each assay a concentration-response curve of the appropriate reference compound was performed in each experiment. The sample radioactivity content was measured after the addition of the scintillation cocktail Microscint 20 (PerkinElmer), by a microplate scintillation Beta-counter TopCount NXT (PerkinElmer). The atomic disintegrations per minutes evaluated with the beta counter were about 15 times higher than those found using the gamma counter. Data are expressed as percentage of control binding value (% B) and test compound inhibition was considered significant when % B was <75% at 10 μM.

[3] = biological target: T2, human Muscarinic M2 Receptor (Homo sapiens, UniProt P08172); test: Radioligand binding assay; conditions: read-out: percentage of control binding value (% B)
T2 construct: expressed in transfected cells; host or cells: HEK293 or CHO
Experimental: as §1, §2, §3

[4] = biological target: T3, human Histamine H2 Receptor (Homo sapiens, UniProt P25021); test: Radioligand binding assay; conditions: read-out: percentage of control binding value (% B)
T3 construct: expressed in transfected cells; host or cells: HEK293 or CHO
T3 sequence (P25021 whole entry): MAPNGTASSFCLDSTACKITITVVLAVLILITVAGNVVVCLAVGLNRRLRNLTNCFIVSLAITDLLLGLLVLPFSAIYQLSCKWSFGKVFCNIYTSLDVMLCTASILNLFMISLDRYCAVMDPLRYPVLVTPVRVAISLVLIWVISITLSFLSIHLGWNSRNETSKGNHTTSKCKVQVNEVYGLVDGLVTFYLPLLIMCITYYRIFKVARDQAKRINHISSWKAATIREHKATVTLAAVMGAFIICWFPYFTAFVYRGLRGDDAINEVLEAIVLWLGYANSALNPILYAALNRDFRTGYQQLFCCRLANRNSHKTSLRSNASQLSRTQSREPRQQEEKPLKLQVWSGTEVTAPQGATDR
Experimental: as §1, §2, §3

[5] = biological target: T4, human Muscarinic M3 Receptor (Homo sapiens, UniProt P20309); test: Radioligand binding assay; conditions: read-out: percentage of control binding value (% B)
T4 construct: expressed in transfected cells; host or cells: HEK293 or CHO
Experimental: as §1, §2, §3

[6] = biological target: T5, human Adrenergic β2 Receptor (Homo sapiens, UniProt P07550); test: Radioligand binding assay; conditions: read-out: percentage of control binding value (% B)
T5 construct: expressed in transfected cells; host or cells: HEK293 or CHO
T5 sequence (P07550 whole entry): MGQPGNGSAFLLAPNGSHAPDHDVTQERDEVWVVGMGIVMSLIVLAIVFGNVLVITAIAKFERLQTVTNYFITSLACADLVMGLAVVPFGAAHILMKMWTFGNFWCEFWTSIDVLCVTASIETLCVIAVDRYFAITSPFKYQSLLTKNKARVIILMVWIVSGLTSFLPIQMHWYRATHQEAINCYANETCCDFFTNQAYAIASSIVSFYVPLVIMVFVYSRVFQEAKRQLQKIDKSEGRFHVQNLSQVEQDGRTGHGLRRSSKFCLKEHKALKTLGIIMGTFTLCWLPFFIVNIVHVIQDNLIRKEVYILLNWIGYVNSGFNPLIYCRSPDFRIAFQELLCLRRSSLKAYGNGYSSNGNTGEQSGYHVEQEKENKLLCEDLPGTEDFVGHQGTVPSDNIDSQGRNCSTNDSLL
Experimental: as §1, §2, §3

[7] = biological target: T6, human Bradykinin B1 Receptor (Homo sapiens, UniProt P46663); test: Radioligand binding assay; conditions: read-out: percentage of control binding value (% B)
T6 construct: expressed in transfected cells; host or cells: HEK293 or CHO
Experimental: as §1, §2, §3

[8] = biological target: T7, human Dopamine D2S Receptor (Homo sapiens, UniProt P14416); test: Radioligand binding assay; conditions: read-out: percentage of control binding value (% B)
T7 construct: expressed in transfected cells; host or cells: HEK293 or CHO
Experimental: as §1, §2, §3

[9] = biological target: T8, human Adrenergic β1 Receptor (Homo sapiens, UniProt P08588); test: Radioligand binding assay; conditions: read-out: percentage of control binding value (% B)
T8 construct: expressed in transfected cells; host or cells: HEK293 or CHO
Experimental: as §1, §2, §3

[10] = biological target: T9, human Serotoninergic 5-HT1A Receptor (Homo sapiens, UniProt P08908); test: Radioligand binding assay; conditions: read-out: percentage of control binding value (% B)
T9 construct: expressed in transfected cells; host or cells: HEK293 or CHO
T9 sequence (P08908 whole entry): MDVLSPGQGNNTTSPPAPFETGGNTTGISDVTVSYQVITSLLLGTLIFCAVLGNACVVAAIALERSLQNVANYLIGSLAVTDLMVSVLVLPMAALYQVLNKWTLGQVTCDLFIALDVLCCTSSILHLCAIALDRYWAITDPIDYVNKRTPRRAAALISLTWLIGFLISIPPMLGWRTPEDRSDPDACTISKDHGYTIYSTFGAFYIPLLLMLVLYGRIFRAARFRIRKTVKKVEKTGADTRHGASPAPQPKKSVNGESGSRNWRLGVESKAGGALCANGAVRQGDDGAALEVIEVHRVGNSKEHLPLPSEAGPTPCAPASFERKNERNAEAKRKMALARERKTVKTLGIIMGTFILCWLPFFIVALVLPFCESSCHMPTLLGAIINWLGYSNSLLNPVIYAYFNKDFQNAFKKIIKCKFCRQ
Experimental: as §1, §2, §3

[11] = biological target: T10, human Histamine H1 Receptor (Homo sapiens, UniProt P35367); test: Radioligand binding assay; conditions: read-out: percentage of control binding value (% B)
T10 construct: expressed in transfected cells; host or cells: HEK293 or CHO
T10 sequence (P35367 whole entry): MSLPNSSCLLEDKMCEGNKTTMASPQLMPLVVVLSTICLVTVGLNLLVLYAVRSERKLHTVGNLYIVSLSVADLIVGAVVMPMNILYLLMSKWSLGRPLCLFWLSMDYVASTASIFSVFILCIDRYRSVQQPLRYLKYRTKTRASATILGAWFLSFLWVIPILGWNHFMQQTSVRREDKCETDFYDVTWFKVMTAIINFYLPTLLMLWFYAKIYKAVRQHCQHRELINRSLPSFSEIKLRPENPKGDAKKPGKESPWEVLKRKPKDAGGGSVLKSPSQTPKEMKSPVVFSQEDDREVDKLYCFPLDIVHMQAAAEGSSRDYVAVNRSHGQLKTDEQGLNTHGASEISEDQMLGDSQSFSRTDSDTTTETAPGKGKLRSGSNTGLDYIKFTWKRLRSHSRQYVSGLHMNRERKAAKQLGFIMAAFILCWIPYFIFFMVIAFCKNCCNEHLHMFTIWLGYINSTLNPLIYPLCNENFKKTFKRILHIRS
Experimental: as §1, §2, §3

[12] = biological target: T11, human Adrenergic α2A Receptor (Homo sapiens, UniProt P08913); test: Radioligand binding assay; conditions: read-out: percentage of control binding value (% B)
T11 construct: expressed in transfected cells; host or cells: HEK293 or CHO
Experimental: as §1, §2, §3

[13] = biological target: T12, human Adrenergic α1A Receptor (Homo sapiens, UniProt P35348); test: Radioligand binding assay; conditions: read-out: percentage of control binding value (% B)
T12 construct: expressed in transfected cells; host or cells: HEK293 or CHO
Experimental: as §1, §2, §3

[14] = biological target: T13, human Cannabinoid CB2 Receptor (Homo sapiens, UniProt P34972); test: Radioligand binding assay; conditions: read-out: percentage of control binding value (% B)
T13 construct: expressed in transfected cells; host or cells: HEK293 or CHO
Experimental: as §1, §2, §3

Male Sprague-Dawley rats = test: Chronic constriction injury model, mechanical allodynia (von Frey); format: in vivo, rat; conditions: 10 mg/kg i.v., 2 hours post-dosing, CCI rats
Experimental: Male Sprague-Dawley rats were used. Under pentobarbital anesthesia, the sciatic nerve was exposed at mid-thigh level (Bennett G J et al Pain. 33: 87-107, 1988). Four ligatures were loosely tied around the sciatic nerve of the left hind limb to induce enhancement of pain caused by nerve injury. Mechanical allodynia was evaluated by using a set of 8 manual von Frey monofilaments (0.4, 0.6, 1, 2, 4, 6, 8 and 15 g) 18 days after surgery and basal response was recorded.
On day 19 body weight was recorded and compounds 10 and 45 were administered by i.v. route at the dose of 10 mg/kg. 60, 120 and 180 min post dose, mechanical allodynia was tested by evaluation of the Paw Withdrawl Threshold (PWT) and % Maximum Possible Effect (MPE) was calculated according to the following formula: […]
The mechanical allodynia was tested 1 day before treatment and at 2 hours post-dosing. One-way ANOVA followed by Dunnett's test was applied for comparison between vehicle control and test compound treated groups. *p<0.05 is considered significant.

TRPM8 [15] = biological target: T14, TRPM8 (Homo sapiens, UniProt Q7Z2W7); test: cell-based
T14 sequence (Q7Z2W7 whole entry): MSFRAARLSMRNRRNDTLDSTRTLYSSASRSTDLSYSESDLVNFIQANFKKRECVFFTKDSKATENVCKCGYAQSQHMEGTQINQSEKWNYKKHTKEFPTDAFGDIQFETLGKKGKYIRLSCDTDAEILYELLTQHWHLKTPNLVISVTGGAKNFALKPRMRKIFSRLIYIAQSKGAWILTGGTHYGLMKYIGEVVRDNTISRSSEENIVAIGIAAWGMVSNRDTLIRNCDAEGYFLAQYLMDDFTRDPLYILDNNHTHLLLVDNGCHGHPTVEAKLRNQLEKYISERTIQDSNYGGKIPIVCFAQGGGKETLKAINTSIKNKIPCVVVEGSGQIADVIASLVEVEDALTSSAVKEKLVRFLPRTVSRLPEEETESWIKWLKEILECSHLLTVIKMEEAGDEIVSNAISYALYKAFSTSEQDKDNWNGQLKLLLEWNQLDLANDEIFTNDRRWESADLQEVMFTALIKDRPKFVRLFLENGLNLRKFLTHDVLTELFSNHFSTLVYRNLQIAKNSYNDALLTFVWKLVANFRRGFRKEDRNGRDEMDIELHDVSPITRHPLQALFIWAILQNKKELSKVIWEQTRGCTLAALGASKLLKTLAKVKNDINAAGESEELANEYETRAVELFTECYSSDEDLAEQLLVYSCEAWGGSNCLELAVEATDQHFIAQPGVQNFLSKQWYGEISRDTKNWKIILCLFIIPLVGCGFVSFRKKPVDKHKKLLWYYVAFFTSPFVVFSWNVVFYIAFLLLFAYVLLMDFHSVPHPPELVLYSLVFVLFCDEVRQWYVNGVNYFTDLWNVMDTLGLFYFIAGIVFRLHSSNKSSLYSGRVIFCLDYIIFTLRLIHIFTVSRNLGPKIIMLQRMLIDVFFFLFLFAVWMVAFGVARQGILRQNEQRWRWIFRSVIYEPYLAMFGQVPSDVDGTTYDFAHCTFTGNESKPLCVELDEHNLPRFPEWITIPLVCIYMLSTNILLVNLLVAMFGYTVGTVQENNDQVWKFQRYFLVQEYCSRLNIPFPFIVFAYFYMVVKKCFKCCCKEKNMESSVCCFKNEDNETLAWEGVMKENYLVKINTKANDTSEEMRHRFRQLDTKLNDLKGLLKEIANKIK
Source text: (§4) Values were considered significant if the test compound mean was three or more standard deviations away from the positive control agonist mean.

CYP 3A4 = CYP 3A4 (Homo sapiens, UniProt P08684); test: CYP inhibition; format: in vitro ADME
TRPM8 [16] = biological target: T14, TRPM8
Source text: as §4

TRPV4 = TRPV4 (Homo sapiens, UniProt Q9HBA0); test: Calcium influx counterassay, agonist GSK1016790A; format: cell-based; conditions: 10 μM GSK1016790A = 100%, read-out: Normalized % inhibition (TRPV4); for inhibition at 1 µM: Test Conc. 1 uM; for inhibition at 10 µM: Test Conc. 10 uM
Chain of TRPV4 (Q9HBA0 whole entry, species assumed): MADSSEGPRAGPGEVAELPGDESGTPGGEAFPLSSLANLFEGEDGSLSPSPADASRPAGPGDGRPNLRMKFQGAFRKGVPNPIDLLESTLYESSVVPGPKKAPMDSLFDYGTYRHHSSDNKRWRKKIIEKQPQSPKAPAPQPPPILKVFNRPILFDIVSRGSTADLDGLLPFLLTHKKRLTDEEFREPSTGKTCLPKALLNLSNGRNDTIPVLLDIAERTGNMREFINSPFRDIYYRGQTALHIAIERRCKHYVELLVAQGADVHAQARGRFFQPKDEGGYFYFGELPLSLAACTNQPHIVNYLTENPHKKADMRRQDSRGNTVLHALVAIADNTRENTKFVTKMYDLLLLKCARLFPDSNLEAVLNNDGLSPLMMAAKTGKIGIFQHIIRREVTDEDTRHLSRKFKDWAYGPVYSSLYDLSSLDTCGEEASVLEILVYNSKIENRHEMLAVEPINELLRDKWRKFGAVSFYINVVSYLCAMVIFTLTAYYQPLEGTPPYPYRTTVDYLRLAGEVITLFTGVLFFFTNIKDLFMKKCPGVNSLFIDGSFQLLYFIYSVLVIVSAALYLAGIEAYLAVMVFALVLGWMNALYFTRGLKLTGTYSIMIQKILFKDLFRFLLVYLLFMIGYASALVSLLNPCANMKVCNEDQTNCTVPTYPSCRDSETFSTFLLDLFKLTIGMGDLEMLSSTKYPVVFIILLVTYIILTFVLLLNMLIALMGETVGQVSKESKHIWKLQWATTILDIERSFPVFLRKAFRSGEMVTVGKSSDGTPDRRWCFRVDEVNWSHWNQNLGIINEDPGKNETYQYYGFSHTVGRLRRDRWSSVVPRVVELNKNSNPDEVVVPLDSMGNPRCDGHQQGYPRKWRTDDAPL
Experimental: In parallel, the ability of each test compound to act as an antagonist of TRPV4 was evaluated with a calcium influx assay.

Chain of hERG channel (Q12809 whole entry): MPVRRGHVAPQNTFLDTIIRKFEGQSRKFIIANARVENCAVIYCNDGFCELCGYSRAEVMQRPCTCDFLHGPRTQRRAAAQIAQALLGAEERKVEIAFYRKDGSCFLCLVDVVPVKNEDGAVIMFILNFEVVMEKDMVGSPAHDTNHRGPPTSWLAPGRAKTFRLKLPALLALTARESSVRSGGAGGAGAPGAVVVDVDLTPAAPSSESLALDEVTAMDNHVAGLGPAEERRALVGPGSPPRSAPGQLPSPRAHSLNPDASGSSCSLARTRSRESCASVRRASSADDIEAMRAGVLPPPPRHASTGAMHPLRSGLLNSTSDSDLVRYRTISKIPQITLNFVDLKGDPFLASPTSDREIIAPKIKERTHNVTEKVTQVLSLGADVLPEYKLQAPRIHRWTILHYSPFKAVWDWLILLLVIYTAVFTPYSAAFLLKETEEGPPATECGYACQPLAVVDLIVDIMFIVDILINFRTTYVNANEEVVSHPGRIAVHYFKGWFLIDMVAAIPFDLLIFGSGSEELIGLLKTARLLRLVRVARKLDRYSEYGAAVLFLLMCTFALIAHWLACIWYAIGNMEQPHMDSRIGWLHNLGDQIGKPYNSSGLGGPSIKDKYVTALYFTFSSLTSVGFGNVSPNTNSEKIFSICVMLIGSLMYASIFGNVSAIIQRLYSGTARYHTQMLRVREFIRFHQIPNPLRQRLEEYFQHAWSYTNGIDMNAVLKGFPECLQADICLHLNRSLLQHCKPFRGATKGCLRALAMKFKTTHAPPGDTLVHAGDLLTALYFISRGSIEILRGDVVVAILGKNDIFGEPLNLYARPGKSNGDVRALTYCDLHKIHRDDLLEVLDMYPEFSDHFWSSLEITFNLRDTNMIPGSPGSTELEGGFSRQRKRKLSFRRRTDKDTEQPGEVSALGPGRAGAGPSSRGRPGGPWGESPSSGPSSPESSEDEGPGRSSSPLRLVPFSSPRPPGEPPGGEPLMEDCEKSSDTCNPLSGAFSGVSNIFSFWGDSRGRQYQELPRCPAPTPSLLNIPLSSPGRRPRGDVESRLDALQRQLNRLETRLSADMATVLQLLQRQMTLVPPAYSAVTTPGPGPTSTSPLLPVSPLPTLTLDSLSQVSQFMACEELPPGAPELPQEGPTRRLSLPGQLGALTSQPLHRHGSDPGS

CYP (% inhibition) @10 μM, 1A2 (CYP 1A2) [%] | logD (Log D) | CYP (% inhibition) @10 μM, 2C9 (CYP 2C9) [%] | CYP (% inhibition) @10 μM, 2C19 (CYP 2C19) [%] | half-life [1] [h] | remaining activity at 10 µM [2] [%] | remaining activity at 10 µM [3] [%] | remaining activity at 10 µM [4] [%] | remaining activity at 10 µM [5] [%] | remaining activity at 10 µM [6] [%] | remaining activity at 10 µM [7] [%] | remaining activity at 10 µM [8] [%] | remaining activity at 10 µM [9] [%] | remaining activity at 10 µM [10] [%] | remaining activity at 10 µM [11] [%] | remaining activity at 10 µM [12] [%] | remaining activity at 10 µM [13] [%] | remaining activity at 10 µM [14] [%] | Structure (SMILES) | hERG binding @10 μM (hERG channel) | anti-allodynic activity, mechanical allodynia (PWT, % MPE) (Male Sprague-Dawley rats) | further results
<5 | 2.7 | <5 | <5 | 4 | 97.2 | 96 | 93.2 | 95 | 93 | 99.6 | 100 | 90.5 | 100 | 100 | 100 | 96 | 86.7 | O=C(O)c1sc(-c2ccc(Cl)cc2)nc1OCc1ccc(Cl)cc1 [Compound 45, 4-[(4-chlorobenzyl)oxy]-2-(4-chlorophenyl)-1,3-thiazole-5-carboxylic acid] | No effect | significant anti-allodynic activity | bioavailability ([1]; oral bioavailability): 60%; IC50 (TRPM8 [15]): 1000 nM; CYP (% inhibition) @10 μM, 3A4 (CYP 3A4): <5%; antagonist activity in calcium influx assay (TRPM8 [16]): confirmed the antagonist activity; inhibition at 1 µM (TRPV4): 5.1%; inhibition at 10 µM (TRPV4): 3.1%
<5 | 1.59 | <5 | <5 | 0.833 | 87 | 90 | 90 | 98 | 88 | 91 | 100 | 82 | 100 | 99.3 | 100 | 100 | 102 | CCOC(=O)c1sc(-c2cccc(F)c2)nc1O [Compound 10, ethyl 2-(3-fluorophenyl)-4-hydroxy-1,3-thiazole-5-carboxylate] | No effect | significant anti-allodynic activity | log D values (Log D): low; IC50 (TRPM8 [15]): 0.2 nM; CYP (% inhibition) @10 μM, 3A4 (CYP 3A4): <5%; antagonist activity in calcium influx assay (TRPM8 [16]): confirmed the antagonist activity; inhibition at 1 µM (TRPV4): 2%; inhibition at 10 µM (TRPV4): 8.9%
